One series has as its target T1, CDK9/CyclinT1 (Homo sapiens, UniProt P50750).
T1 construct: purchased Carna
Kind of series: In vitro CDK9/CyclinT1 enzyme activity test (ADP-Glo). The class given is biochemical. Conditions: 100 μM ATP, 25° C., 120 minutes. How it is done: CDK9/CyclinT1 kinase was purchased from Carna, ADP-Glo detection kit was purchased from Promega, and PKDTide substrate and kinase reaction buffer were purchased from Signalchem. Nivo multi-label analyzer (PerkinElmer).
The kinase buffer in the kit was used to dilute the enzyme, substrate, adenosine triphosphate and inhibitors.
The compound to be tested was diluted by 5 times for 8 concentrations with a discharge gun, ie., dilution from 50 μM to 0.65 nM, with a DMSO concentration of 5%, and replicated. 1 μL of each concentration gradient of the inhibitor, 2 μL CDK9/CyclinT1 enzyme (4 ng), 2 μL of a mixture of substrate and ATP (100 μM adenosine triphosphate, 0.2 μg/μL substrate) was added to the microplate, and the final concentration gradient of the compound was 10 μM dilution to 0.13 nM. The reaction system was placed at 25° C. for 120 minutes. After the reaction, 5 μL of ADP-Glo reagent was added to each well, and the reaction was allowed to continue at 25° C. for 40 minutes. After the reaction, 10 μL of kinase detection reagent was added to each well. After reacting at 25° C. for 30 minutes, a multi-label analyzer was used to read chemiluminescence. The integration time was 0.5 seconds.
Table 1 provides the enzymatic inhibitory activity of the compounds of the present invention on CDK9/CyclinT1.

A further series concerns the target T2, CDK2/CyclinE1 (Homo sapiens, UniProt P24941).
T2 construct: purchased Promega
Briefly: In vitro CDK2/CyclinE1 enzyme activity test (ADP-Glo). The settings on record: 150 μM ATP, 25° C., 60 minutes. The class given is biochemical. How it is done:
CDK2/CyclinE1 kinase detection kit was purchased from Promega. Nivo multi-label analyzer (PerkinElmer).
(§1) Using the kinase buffer in the kit to dilute the enzyme, substrate, adenosine triphosphate and inhibitor.
The compound to be tested was diluted 5-fold to the 8th concentration with a discharge gun, that is, diluted from 50 μM to 0.65 nM, with a DMSO concentration of 5%, and replicated. Add 1 μL of each inhibitor concentration gradient, 2 μL CDK2/CyclinE1 enzyme (2 ng), 2 μL mixture of substrate and ATP (150 μM adenosine triphosphate, 0.1 μg/μL substrate) to the microplate, and the final concentration gradient of the compound is 10 μM dilution to 0.13 nM. The reaction system was placed at 25° C. for 60 minutes. After the reaction, add 5 μL of ADP-Glo reagent to each well, and continue the reaction at 25° C. for 40 minutes. After the reaction, add 10 μL of kinase detection reagent to each well. After reacting at 25° C. for 30 minutes, use a multi-label analyzer to read chemiluminescence. The integration time is 0.5 seconds.
Table 1 provides the CDK2/CyclinE1 enzymatic inhibitory activity of the compounds of the present invention.

A further series deals with MV-4-11 cells. Briefly: In vitro cell activity test, MV-4-11 proliferation (CellTiter-Glo). Conditions: Homo sapiens, MV4-11, 72 h, 3 days incubation. The class given is cell-based. The procedure: IMDM medium, fetal bovine serum, penicillin/streptomycin antibiotics were purchased from Promega (Madison, Wis.). The MV-4-11 cell line was purchased from the Cell Bank of the Chinese Academy of Sciences. Nivo multi-label analyzer (PerkinElmer).
Plant MV-4-11 cells in a white 96-well plate, 80 μL of cell suspension per well, which contains 6000 MV-4-11 cells. The cell plate was cultured overnight in a carbon dioxide incubator.
The compound to be tested was diluted 5-fold to the 8th concentration with a discharge gun, that is, diluted from 2 mM to 26 nM, and replicated. Add 78 μL of culture medium to the middle plate, and then transfer 2 μL of each well of the gradient dilution compound to the middle plate according to the corresponding position, and transfer 20 μL of each well to the cell plate after mixing. The final concentration of the compound is 10 μM to 0.13 nM. The cell plate was placed in a carbon dioxide incubator for 3 days.
Add 25 μL of Promega CellTiter-Glo reagent per well to the cell plate and incubate at room temperature for 10 minutes to stabilize the luminescence signal. Use PerkinElmer Nivo multi-label analyzer to read.

The next series has as its target T3, CDK1/CyclinB1 (Homo sapiens, UniProt P06493).
T3 construct: purchased Promega
Briefly: In vitro CDK1/CyclinB1 enzyme activity test (ADP-Glo). The class given is biochemical. Conditions: 25 μM ATP, 25° C., 120 minutes. How it is done:
CDK1/CyclinB1 kinase detection kit was purchased from Promega. Nivo multi-label analyzer (PerkinElmer).
as §1
The compound to be tested was diluted 5-fold to the 8th concentration with a discharge gun, that is, diluted from 50 μM to 0.65 nM, with a DMSO concentration of 5%, and replicated. Add 1 μL of each inhibitor concentration gradient, 2 μL CDK1/CyclinB1 enzyme (12.5 ng), 2 μL mixture of substrate and ATP (25 μM adenosine triphosphate, 0.2 μg/μL substrate) into the microplate, and the final concentration gradient of the compound is 10 μM dilute to 0.13 nM. The reaction system was placed at 25° C. for 120 minutes. After the reaction, add 5 μL of ADP-Glo reagent to each well, and continue the reaction at 25° C. for 40 minutes. After the reaction, add 10 μL of kinase detection reagent to each well. After reacting at 25° C. for 30 minutes, use a multi-label analyzer to read chemiluminescence. The integration time is 0.5 seconds.
Table 1 provides the CDK1/CyclinB1 enzymatic inhibitory activity of the compounds of the present invention.

For series [1], the system named is MV4-1 acute myeloid leukemia xenograft (CDX). Briefly: In vivo drug efficacy study (2), MV4-11 CDX model. The settings on record: 10 mg/kg injected weekly; for Tumor Volume Day 0: Day 0 (start of administration). The procedure:
In vivo drug efficacy experiments were performed on human-derived tumor cell line-based xenograft (CDX) BALB/c nude mice derived from patients with MV4-1 acute myeloid leukemia subcutaneously implanted.
(§2) Female 6- to 8-week old BALB/c nude mice which weighed about 18-22 g were kept in separate ventilated cages (3 mice per cage) in a special pathogen-free environment. All the cages, matts and water were disinfected before use. All the animals had free access to standard certified commercial laboratory diet. A total of 36 mice were purchased from Shanghai Lingchang biological science and technology Co., LTD. for study. Each mouse was subcutaneously implanted with tumor cells in the right next abdomen (10×10^6 in 0.2 mL of phosphate buffer) for tumor growth. The administration started when the average tumor volume reached approximately 121 cubic millimeters. The test compound was injected weekly at a dose of 10 mg/kg. The tumor volumes were measured with a two-dimensional caliper twice a week, and the volumes were expressed in cubic millimeters and calculated by the formula: V=0.5a×b^2, where a and b were the major diameter and the minor diameter of the tumor, respectively. Antitumor efficacy was determined by dividing an average increase of the tumor volumes of the animals treated with the compounds by an average increase of the tumor volumes of the untreated animals.

Series [2] deals with MV4-11 acute myeloid leukemia xenograft (CDX). Kind of series: In vivo drug efficacy study (1), MV4-11 CDX model. Conditions: 15 mg/kg injected weekly. How it is done: In vivo drug efficacy experiments were performed on human-derived tumor cell line-based xenograft (CDX) BALB/c nude mice derived from patients with MV4-11 acute myeloid leukemia subcutaneously implanted.
as §2, with “of 30” for “of 36”, “approximately 110” for “approximately 121”, “of 15” for “of 10”

Counter-ions that a name gives are not always drawn.

T1 sequence (P50750 whole entry): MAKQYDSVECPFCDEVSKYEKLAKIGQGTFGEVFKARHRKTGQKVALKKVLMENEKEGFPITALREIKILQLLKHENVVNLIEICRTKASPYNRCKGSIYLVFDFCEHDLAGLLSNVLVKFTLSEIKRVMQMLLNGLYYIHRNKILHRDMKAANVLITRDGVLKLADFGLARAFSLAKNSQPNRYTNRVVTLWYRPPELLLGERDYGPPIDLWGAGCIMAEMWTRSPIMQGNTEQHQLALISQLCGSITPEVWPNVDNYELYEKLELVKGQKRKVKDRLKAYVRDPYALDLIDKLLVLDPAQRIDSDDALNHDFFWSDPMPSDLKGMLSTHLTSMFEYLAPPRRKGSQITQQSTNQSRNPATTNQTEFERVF
T1 sequence (O60563 whole entry partner): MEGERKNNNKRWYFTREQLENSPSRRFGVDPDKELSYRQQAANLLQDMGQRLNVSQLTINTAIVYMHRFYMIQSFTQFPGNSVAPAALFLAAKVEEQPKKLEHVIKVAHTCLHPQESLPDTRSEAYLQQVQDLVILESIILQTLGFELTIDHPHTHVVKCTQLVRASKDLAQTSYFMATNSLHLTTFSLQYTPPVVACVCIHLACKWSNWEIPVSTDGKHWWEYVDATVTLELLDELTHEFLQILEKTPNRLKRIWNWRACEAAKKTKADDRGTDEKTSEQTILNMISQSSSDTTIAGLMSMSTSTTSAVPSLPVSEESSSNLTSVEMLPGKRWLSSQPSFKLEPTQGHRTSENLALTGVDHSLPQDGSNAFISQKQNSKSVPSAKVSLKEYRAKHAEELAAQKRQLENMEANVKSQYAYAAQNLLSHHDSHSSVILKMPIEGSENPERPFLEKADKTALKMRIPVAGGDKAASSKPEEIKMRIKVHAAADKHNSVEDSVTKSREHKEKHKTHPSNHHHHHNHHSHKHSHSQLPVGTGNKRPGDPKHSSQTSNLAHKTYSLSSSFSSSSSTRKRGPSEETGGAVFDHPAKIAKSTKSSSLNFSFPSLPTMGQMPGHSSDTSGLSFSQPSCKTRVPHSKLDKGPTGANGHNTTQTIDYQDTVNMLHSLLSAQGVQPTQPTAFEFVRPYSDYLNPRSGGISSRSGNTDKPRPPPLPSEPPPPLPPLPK
T3 sequence (P06493 whole entry): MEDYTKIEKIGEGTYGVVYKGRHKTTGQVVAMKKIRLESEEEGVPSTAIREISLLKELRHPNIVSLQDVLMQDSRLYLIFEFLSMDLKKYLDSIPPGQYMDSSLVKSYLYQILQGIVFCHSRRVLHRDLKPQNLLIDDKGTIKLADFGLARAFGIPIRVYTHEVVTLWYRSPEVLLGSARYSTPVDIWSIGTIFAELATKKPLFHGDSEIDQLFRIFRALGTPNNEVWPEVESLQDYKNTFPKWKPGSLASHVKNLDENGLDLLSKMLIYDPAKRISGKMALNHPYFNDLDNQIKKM
T3 sequence (P14635 whole entry partner): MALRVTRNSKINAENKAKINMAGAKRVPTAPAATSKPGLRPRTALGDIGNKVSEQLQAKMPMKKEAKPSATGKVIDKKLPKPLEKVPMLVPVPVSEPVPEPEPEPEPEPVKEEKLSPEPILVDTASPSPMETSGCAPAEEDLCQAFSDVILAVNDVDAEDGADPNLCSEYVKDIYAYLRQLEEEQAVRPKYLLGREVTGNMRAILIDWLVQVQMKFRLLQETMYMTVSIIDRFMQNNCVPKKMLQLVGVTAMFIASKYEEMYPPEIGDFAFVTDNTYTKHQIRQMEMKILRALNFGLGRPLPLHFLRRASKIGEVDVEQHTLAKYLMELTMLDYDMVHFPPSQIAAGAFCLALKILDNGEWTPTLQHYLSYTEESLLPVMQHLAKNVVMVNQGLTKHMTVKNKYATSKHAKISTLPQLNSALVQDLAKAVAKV

Turning to `Clc1cnc2[nH]c(C3CCNCC3)cc2c1-c1cnn(Cc2ccccc2)c1` [Compound 9 (formate)], the IC50 on CDK9/CyclinT1 came to 0.0063 µM; against CDK2/CyclinE1, 0.105 µM; in the series with MV-4-11 cells, 0.0673 µM; against CDK1/CyclinB1, 0.133 µM.

With `Clc1cnc2[nH]c(C3CCNCC3)cc2c1-c1cnn(CC2CCCC2)c1` [Compound 8 (formate)], the IC50 against CDK9/CyclinT1 was 0.0071 µM; at CDK2/CyclinE1, 0.075 µM; in the series on MV-4-11 cells, 0.0546 µM; at CDK1/CyclinB1, 0.178 µM.

Turning to `Clc1cnc2[nH]c(C3CCNCC3)nc2c1-c1cnn(CC2CC2)c1` [Compound 14], the IC50 on CDK9/CyclinT1 was 0.0384 µM; against CDK2/CyclinE1, 1.36 µM; in the series on MV-4-11 cells, 0.464 µM.

For the compound `COCCN1CCC(c2cc3c(-c4cnn(CC5CC5)c4)c(Cl)cnc3[nH]2)CC1` [5 (hydrochloride)], the IC50 was 0.0106 µM against CDK9/CyclinT1, 0.235 µM on CDK2/CyclinE1, 0.0638 µM in the series on MV-4-11 cells and 1.55 µM on CDK1/CyclinB1.

As to `Clc1cnc2[nH]c(C3CCNCC3)c(Cl)c2c1-c1cnn(CC2CC2)c1` [Compound 7], the IC50 against CDK9/CyclinT1 was determined as 0.0052 µM; against CDK2/CyclinE1 it was 0.113 µM; in the series on MV-4-11 cells, 0.0866 µM; on CDK1/CyclinB1, 0.366 µM.

On to `Clc1cccc(Cn2cc(-c3c(Cl)cnc4[nH]c(C5CCNCC5)cc34)cn2)c1` [Compound 11 (formate)], for which the IC50 against CDK9/CyclinT1 is 0.0064 µM; on CDK2/CyclinE1 it was 0.214 µM; in the series on MV-4-11 cells, 0.0648 µM; on CDK1/CyclinB1, 0.12 µM.

For `CN1CCC(c2cc3c(-c4cnn(CC5CC5)c4)c(Cl)cnc3[nH]2)CC1` [Compound 2 (formate)], the 50% inhibitory concentration (IC50) stood at 0.0071 µM against CDK9/CyclinT1, 0.0794 µM against CDK2/CyclinE1, 0.0357 µM in the series with MV-4-11 cells and 0.255 µM against CDK1/CyclinB1.

With `Clc1cnc2[nH]c(C3CCNCC3)cc2c1-c1cnn(CC2CC2)c1` [Compound 1 (hydrochloride)], the IC50 was determined as 0.0077 µM against CDK9/CyclinT1, 0.112 µM against CDK2/CyclinE1, 0.0147 µM in the series on MV-4-11 cells and 0.0887 µM on CDK1/CyclinB1. In addition, the “Animals' Drug Tolerance” value in series [1] and in series [2] was “Well” throughout. Moreover, the “Tumor Volume Day 0” value turned out to be 121 mm^3 in series [1] and 110 mm^3 in series [2] (Day 0 (start of administration)). For the same compound, the “Tumor Volume Day 7” value in series [1] was 121 mm^3; in series [2] (Day 7), 109 mm^3. Also, the figures for the “Tumor Volume Day 17” value in series [1] and in series [2] (Day 17) were 151 mm^3 and 42 mm^3, respectively. Moreover, the “Tumor Volume Day 28” value in series [1] worked out at 419 mm^3; in series [2] (Day 28), 107 mm^3.

For the compound `Clc1ccc(Cn2cc(-c3c(Cl)cnc4[nH]c(C5CCNCC5)cc34)cn2)cc1` [Compound 12], the IC50 stood at 0.0077 µM against CDK9/CyclinT1, 0.549 µM on CDK2/CyclinE1, 0.286 µM in the series with MV-4-11 cells and 0.26 µM at CDK1/CyclinB1.

As to `CCN1CCC(c2cc3c(-c4cnn(CC5CC5)c4)c(Cl)cnc3[nH]2)CC1` [Compound 3 (hydrochloride)], the half-maximal inhibitory concentration (IC50) at CDK9/CyclinT1 was 0.0141 µM; against CDK2/CyclinE1, 0.105 µM; in the series with MV-4-11 cells, 0.0074 µM; against CDK1/CyclinB1, 0.416 µM.

Compound `Cn1cc(-c2c(Cl)cnc3[nH]c(C4CCNCC4)cc23)cn1` [Compound 15 (hydrochloride)] gave an IC50 against CDK9/CyclinT1 of 0.0043 µM. In addition, the half-maximal inhibitory concentration (IC50) against CDK2/CyclinE1 came to 0.685 µM. Moreover, half-maximal inhibition in the series on MV-4-11 cells (IC50) required 0.0345 µM. On CDK1/CyclinB1, inhibition was half-maximal at 0.824 µM (IC50). Further, in series [1], the “Animals' Drug Tolerance” value is recorded as “Well”, the “Tumor Volume Day 0” value stood at 121 mm^3, the “Tumor Volume Day 7” value stood at 87 mm^3 and the “Tumor Volume Day 17” value came out at 74 mm^3. The “Tumor Volume Day 28” value in series [1] is on record as 332 mm^3.

Regarding `CC(C)N1CCC(c2cc3c(-c4cnn(CC5CC5)c4)c(Cl)cnc3[nH]2)CC1` [4 (hydrochloride)], the IC50 against CDK9/CyclinT1 worked out at 0.0103 µM; against CDK2/CyclinE1, 0.334 µM; in the series with MV-4-11 cells it was 0.0948 µM; at CDK1/CyclinB1 it was 0.756 µM.

`COCC(C)N1CCC(c2cc3c(-c4cnn(CC5CC5)c4)c(Cl)cnc3[nH]2)CC1` (centres unmarked) [Compound 6 (formate)]: the IC50 on CDK9/CyclinT1 is 0.0096 µM; against CDK2/CyclinE1, 0.394 µM; in the series on MV-4-11 cells it was 0.052 µM; on CDK1/CyclinB1, 1.03 µM.

Consider `Clc1ccccc1Cn1cc(-c2c(Cl)cnc3[nH]c(C4CCNCC4)cc23)cn1` [Compound 10 (formate)], for which the concentration for half-maximal inhibition (IC50) worked out at 0.0069 µM against CDK9/CyclinT1, 0.549 µM against CDK2/CyclinE1, 0.0791 µM in the series on MV-4-11 cells and 0.0879 µM at CDK1/CyclinB1.

Regarding `c1cc(-c2cnn(CC3CC3)c2)c2cc(C3CCNCC3)[nH]c2n1` [Compound 3 (formate)], the IC50 came out at 0.018 µM on CDK9/CyclinT1, 0.933 µM against CDK2/CyclinE1, 0.252 µM in the series on MV-4-11 cells and 0.879 µM against CDK1/CyclinB1.

The values above are taken from patent US20220267321A1, “AZAINDOLE PYRAZOLE COMPOUNDS AS CDK9 INHIBITORS” (MEDSHINE DISCOVERY INC., priority 2019, published 2022).
